Laboratory results taken from article PMC11696576, “Next generation thiazolyl ketone inhibitors of cytosolic phospholipase A2 α for targeted cancer therapy” (Nature Communications, 2025).
Several values for one entry are separate records, joined by “and”; a condition that tells them apart may be missing. Equal entries are not always repeated. Where two headings read alike, the source gives them in different places.

Tested on: panel of 66 cancer cell lines
Test: cancer cell line screen, proliferation assay (ATPlite, 72 h)
Format: cell-based, human
Settings: for IC50: Homo sapiens, read-out: IC50; for raw signal, dose-response (Figure S7a): rep1, rep2, listed as AVX420
Excerpt: Targeting specific molecular vulnerabilities in cancer is considered a key approach to reducing the adverse effects of chemotherapy. However, the events that govern the susceptibility to suppression of the cPLA2α in cancer remain largely unexplored. We therefore took the approach of screening the antiproliferative activity of AVX420 in a panel of 66 cancer cell lines (hereafter referred to as the cancer cell line screen or CCLS) to allow us to investigate molecular and genetic vulnerabilities to the drug.
Screening of compound activities in 66 cancer cell lines was carried out at the Netherlands Translation Research Center. Briefly, proliferation assays were performed 72 h after compound addition using ATPlite 1step reagent (Perkin Elmer). IC50s calculated by non-linear regression analysis were used as a measure of compound activity for investigating associations with genetic factors. A complete description of the laboratory and data analysis methods are available in the Supplementary Information file (Supplemental Methods: Cancer Cell Line Screening).
Cancer cell line screening
Cell proliferation assays
All cell lines were from the American Type Culture Collection (ATCC) Manassas, Virginia (US) and maintained under ATCC-recommended protocols and within 9 pas- […]
DMSO at -80°C until one hour before use. Cells exposed within one hour after thaw-ing of the compound stocks. Final compound concentration range in the assay was 10 […]
cated by supplier. Compounds were dissolved in 100 % DMSO and stored at room temperature. Final concentration of the reference compounds in the assay was 3.16x10-5 M to 3.16x10-9 M. The final DMSO concentration during incubation was […]
Cell lines were plated in Advanced RPMI 1640 (Gibco, ref 12633-012) cell culture medium, containing 1% Glutamax solution (Gibco, ref 35050-038), 0.4% Pen Strep solution (Gibco, ref 15140-122) and bovine serum. The cPLA2α inhibitors were tested in 0.5% bovine serum (HyClone, ref SH30072.03) with the exception of769-P, A-204, BT-549, SR, T98G, which were tested in the presence of 1.0% serum and A-704 and LNCaP FGS, which were tested in the in the presence of 10% serum. Reference com-pounds were all tested in the presence of 10% bovine serum.
Cells were dispensed in a 384-well plate, at a concentration of 200 - 3200 cells per well, depending on the cell line, in 45 μL medium. Plated cells were incubated in a humidified atmosphere of 5% CO2 at 37 °C. After 24 hours, 5 μL of compound dilu-tion was added and plates were further incubated for another 72 hours. After 72 hours, 25 μL of ATPlite 1Step™ (PerkinElmer) solution was added to each well, and subse-quently shaken for 2 minutes. After 10 minutes of incubation in the dark, the lumines-cence was recorded on an Envision multimode reader (PerkinElmer).
Cell growth control. The cellular doubling times of all cell lines are calculated from the t = 0 hours and t = 72 hours growth signals of the untreated cells. If the doubling time is out of specification (0.5 – 2.0 times deviating from historic average) the assay […]
IC50s were calculated by non-linear regression using IDBS XLfit 5. The percentage growth after 72h (%-growth) was calculated as follows: 100% x (luminescence t = 72h / luminescence untreated,t=72h). This was fitted to the 10log compound concentration (conc) by a 4-parameter logistics curve: %-growth = bottom + (top – bottom) / (1+ 10(logIC50 – conc)*hill)), where hill is the Hill-coefficient, and bottom and top the asymptotic mini-mum and maximum cell growth that the compound allows in that assay.
All analysis were performed in the statistical software package R and visualized using GraphPad Prism version 10.0 .0

SMILES: CCCCCCCOc1ccc(OCC(=O)c2nc(C(=O)OC)cs2)cc1 [GK420]
- IC50 (SJCRH30): 16.6 µM
- IC50 (SK-N-AS): 14.2 µM
- IC50 (SK-N-FI): 20 µM
- IC50 (SNU-C2B): 19.3 µM
- IC50 (SR): 12.5 µM
- IC50 (SUP-T1, SUP-T1): 17.9 µM
- IC50 (SW48, SW48): 22.6 µM
- IC50 (SW480, SW480): 14.3 µM
- IC50 (SW948, SW948): 21.1 µM
- IC50 (SW-620, SW620): 20 µM
- IC50 (T98G): 42.4 µM
- IC50 (T-24, T24): 14.7 µM
- IC50 (TT): 27.7 µM
- IC50 (U2OS, U-2 OS): 8.01 µM
- IC50 (U-87 MG): 20.3 µM
- IC50 (VA-ES-BJ): 23 µM
- pIC50 (Hs578T, breast): 4,834
- pIC50 (J82, urinary_tract): 4,716
- raw signal, dose-response (Figure S7a) (Jurkat E6.1, Log10 M -5): 18200 and 21347
- raw signal, dose-response (Figure S7a) (Jurkat E6.1, Log10 M -5.5): 21213 and 30520
- raw signal, dose-response (Figure S7a) (Jurkat E6.1, Log10 M -6.5): 2114520 and 2235427
- raw signal, dose-response (Figure S7a) (Jurkat E6.1, Log10 M -7): 2341173 and 2551267
- raw signal, dose-response (Figure S7a) (Jurkat E6.1, Log10 M -7.5): 2392960 and 2321813
- raw signal, dose-response (Figure S7a) (Jurkat E6.1, Log10 M -8): 2356933 and 2578573
- pIC50 (Jurkat, blood): 6,245
- pIC50 (K562, blood): 4,814
- raw signal, dose-response (Figure S7a) (K562, Log10 M -4): 74307 and 48600
- raw signal, dose-response (Figure S7a) (K562, Log10 M -4.5): 1190933 and 1527307
- raw signal, dose-response (Figure S7a) (K562, Log10 M -5): 13304880 and 13536973
- raw signal, dose-response (Figure S7a) (K562, Log10 M -5.5): 15252080 and 16813307
- pIC50 (KU812, blood): 5,039
- raw signal, dose-response (Figure S7a) (KU812, Log10 M -4): 2867 and 5600
- raw signal, dose-response (Figure S7a) (KU812, Log10 M -4.5): 66600 and 77573
- raw signal, dose-response (Figure S7a) (KU812, Log10 M -5.5): 3841840 and 3310707
- raw signal, dose-response (Figure S7a) (KU812, Log10 M -6): 3516360 and 3607827
- raw signal, dose-response (Figure S7a) (KU812, Log10 M -6.5): 3576653 and 3459747
- raw signal, dose-response (Figure S7a) (KU812, Log10 M -7): 3573240 and 3479493
- raw signal, dose-response (Figure S7a) (KU812, Log10 M -7.5): 3396627 and 3395373
- raw signal, dose-response (Figure S7a) (KU812, Log10 M -8): 3660107 and 3329680
- pIC50 (LoVo, large_intestine): 4,781
- pIC50 (MCF7, breast): 4,833
- pIC50 (MG63, bone): 4,644
- pIC50 (MIAPaCa2, pancreas): 4,884
- raw signal, dose-response (Figure S7a) (MOLT-4, Log10 M -4): 6187 and 5813
- raw signal, dose-response (Figure S7a) (MOLT-4, Log10 M -5): 64080 and 125733
- raw signal, dose-response (Figure S7a) (MOLT-4, Log10 M -5.5): 4862747 and 5232987
- raw signal, dose-response (Figure S7a) (MOLT-4, Log10 M -6): 6801747 and 6267067
- raw signal, dose-response (Figure S7a) (MOLT-4, Log10 M -6.5): 7366227 and 6477733
- raw signal, dose-response (Figure S7a) (MOLT-4, Log10 M -7): 6306707 and 6935720
- raw signal, dose-response (Figure S7a) (MOLT-4, Log10 M -7.5): 6661907 and 6660467
- raw signal, dose-response (Figure S7a) (MOLT-4, Log10 M -8): 6315747 and 6363187
- pIC50 (MeWo, skin): 4,711
- pIC50 (NCIH82, lung): 5,315
- pIC50 (NCIH460, lung): 4,489
- pIC50 (RPMI7951, skin): 4,852
- pIC50 (RT4, urinary_tract): 4,477
- pIC50 (SHP77, lung): 4,861
- pIC50 (SKNAS, peripheral_nervous_system): 4,847
- pIC50 (SKNFI, peripheral_nervous_system): 4,698
- raw signal, dose-response (Figure S7a) (SR, Log10 M -4): 11267 and 10080
- raw signal, dose-response (Figure S7a) (SR, Log10 M -4.5): 14987 and 22200
- raw signal, dose-response (Figure S7a) (SR, Log10 M -5): 2171560 and 2105733
- raw signal, dose-response (Figure S7a) (SR, Log10 M -5.5): 2501520 and 2976000
- raw signal, dose-response (Figure S7a) (SR, Log10 M -6): 2547880 and 3067093
- raw signal, dose-response (Figure S7a) (SR, Log10 M -6.5): 2848387 and 3116973
- raw signal, dose-response (Figure S7a) (SR, Log10 M -7): 3165427 and 3131507
- raw signal, dose-response (Figure S7a) (SR, Log10 M -7.5): 3036893 and 2296373
- raw signal, dose-response (Figure S7a) (SR, Log10 M -8): 3222893 and 3197013
- raw signal, dose-response (Figure S7a) (SUP-T1, Log10 M -4): 26587 and 37653
- raw signal, dose-response (Figure S7a) (SUP-T1, Log10 M -5): 6935960 and 5931427
- raw signal, dose-response (Figure S7a) (SUP-T1, Log10 M -5.5): 6473080 and 6695013
- raw signal, dose-response (Figure S7a) (SUP-T1, Log10 M -6): 6511467 and 6816760
- raw signal, dose-response (Figure S7a) (SUP-T1, Log10 M -6.5): 6737680 and 6611147
- raw signal, dose-response (Figure S7a) (SUP-T1, Log10 M -7): 6237733 and 6274507
- raw signal, dose-response (Figure S7a) (SUP-T1, Log10 M -7.5): 6362947 and 6848640
- raw signal, dose-response (Figure S7a) (SUP-T1, Log10 M -8): 6336067 and 6341827
- pIC50 (SUPT1, blood): 4,747
- pIC50 (SW48, large_intestine): 4,646
- pIC50 (SW480, large_intestine): 4,843
- pIC50 (SW620, large_intestine): 4,698
- pIC50 (SW948, large_intestine): 4,676
- pIC50 (T24, urinary_tract): 4,833
- pIC50 (T98G, central_nervous_system): 4,373
- pIC50 (TT, thyroid): 4,558
- pIC50 (U2OS, bone): 5,097
- pIC50 (U87MG, central_nervous_system): 4,692
- pIC50 (VAESBJ, soft_tissue): 4,638
